{"source": "patent US4424218A", "about": "“Novel 3 α-amino steroids” (Roussel Uclaf, priority 1979, dated 1984)", "key": {"[1]": {"system": "rosettes to sheep red corpuscles", "assay": "Test of Rosettes to sheep red corpuscles", "assay_type": "in vivo, rats", "conditions": "Rattus norvegicus, po, 24 h, read-out: immunostimulating dose which multiplied by 2 the percentage of rosettes observed in the control animals", "source_text": "D. Test of Rosettes to sheep red corpuscles\nThe administration to animals of a product capable of stimulating the immunitary systems leads to an increase of their capacity of reaction to the injection of an immunogenic product. 3 month old male rats were sensibilized by intraperitoneal administration of sheep erythrocytoes on day 0 and 7 days later, the spleen was removed and splenocytes were placed in contact with sheep erythrocytes. The percentage of leucocytes around the erythrocytes in the form of rosettes was determined. The test compounds were orally administered daily from day-1 to day 1 and immunostimulating dose is the dose of product which multiplied by 2 the percentage of rosettes observed in the control animals and the results are reported in Table II."}, "anaphylactic shock": {"system": "anaphylactic shock", "assay": "Adjuvant for anaphylactic shock (beef seric albumin)", "assay_type": "in vivo, mice", "conditions": "intraplantary, admixed with antigen; antigen intravenously 8 days later", "source_text": "C. Adjuvant for anaphylactic shock\nThe administration to animals of a compound capable of stimulating the activity of immunitary systems leads to an increase in response to administration of antigen to which the animal is sensitive. Male mice weighing between 30 to 35 g were sensitized by intraplantary administration of beef seric albumin. 8 days later, the mice received intraveinously an antigen and under the minimum sensibilization conditions, the control animals were not in mortal shock at the time of the last administration.\nThe active dose which provoked a mortality equal to or greater than 50% of the animals was determined and the results are reported in Table I."}, "mice": {"system": "mice", "assay": "Acute toxicity", "assay_type": "in vivo", "conditions": "orally"}, "IgE production": {"system": "IgE production", "assay": "Potentialization of IgE production (passive cutaneous anaphylaxia test)", "assay_type": "in vivo, mice", "conditions": "for minimal effective dose: Mus musculus, sc, read-out: active dose, potentialization of IgE production", "experimental": "A. Potentialization of IgE production\nFemale mice weighing between 28 to 30 g were immunized by subcutaneous administration of an ovalbumin-alumina mixture on days 0 and 14 and serum was taken on the 21st day for dosage of IgE antibodies formed. The respective quantities of antigen (ovalbumin) and adjuvant (alumina) injected was selected so as to keep production of antibodies at a minimum. The test compounds were administered subcutaneously 3 hours before the first immunization.\nThe research of the larger dilution of serum which gives a spot of a 11 to 13 mm diameter for each animal is made. An adequate dilution of serum was injected intradermally with a volume of 0.1 ml in male rats weighing about 250 g in the region of the back. 48 hours later, the animals received veinously 0.5 ml of a solution of 0.5% of ovalbumin and 1% of Evans blue in an isotonic solution of sodium chloride. 30 minutes after this injection, the animals were killed by exsanguination and the diameter of the blue spot on turned over skin is measured."}, "secondary arthritis": {"system": "secondary arthritis", "assay": "Adjuvant for chronic arthritis (Freund type adjuvant)", "assay_type": "in vivo, rat", "conditions": "for ED50: Rattus norvegicus, read-out: active dose which diminished the secondary inflammation by at least 50%", "experimental": "B. Adjuvant for chronic arthritis\nThe injection of a Freund type adjuvant (Mycobacterium butyricum at 6 mg/ml in Bayol 55) into the posterium paw of a rat provokes a primary inflammatory lesion and then after a latency period of 13 to 15 days, initiation of secondary inflammation affecting the other non-injected rear paw as well as the front paws, the ears and the tail.\nMale rats aged 42 to 50 days received an intraplantary injection of 0.10 ml of Freund adjuvant and treatment started the day of the adjuvant injection and continued until the animals were killed on the 17th day. […] In this test, the effect on secondary inflammations was essentially observed, it was determined by the arthritis of the non-injected rear paw, arthritis of the front paws and the inflammation of the ears and tail."}, "[2]": {"conditions": "orally, daily from day -1 to day 1"}}, "note": "Counter-ions that a name gives are not always drawn. Like-named read-outs stand apart in the source and are kept apart here."}
{"smiles": "C[C@H](O)[C@H]1CC[C@H]2[C@@H]3CC[C@H]4C[C@H](NC(=O)[C@@H]5CCCN5)CC[C@]4(C)[C@H]3CC[C@]12C", "note": "[Example 7]", "values": [{"measurement": "ED (2-fold rosettes)", "setting": "[1]; [2]", "value": "> 5", "unit": "mg/kg"}, {"measurement": "active dose which provoked a mortality equal to or greater than 50% of the animals", "setting": "anaphylactic shock", "value": 2, "unit": "mg per animal"}, {"measurement": "DL0 (lethal dose LD0, maximum dose which did not cause any mortality after 8 days)", "setting": "mice", "value": "≥ 800", "unit": "mg/kg"}]}
{"smiles": "C[C@H](O)[C@H]1CC[C@H]2[C@@H]3CC[C@H]4C[C@H](NC(=O)CN)CC[C@]4(C)[C@H]3CC[C@]12C.Cl", "note": "[Product A, (20S) 3α-[(aminoacetyl)-amino]-5α-pregnane-20-ol hydrochloride]", "values": [{"measurement": "minimal effective dose", "setting": "IgE production", "value": 0.5, "unit": "mg/kg"}, {"measurement": "immunostimulating activity in IgE test (in words)", "setting": "IgE production; subcutaneous, compared with Levamisole", "value": "greater immunostimulating activity than Levamisole"}, {"measurement": "ED50", "setting": "secondary arthritis; sc", "value": 1, "unit": "mg/kg"}, {"measurement": "activity against secondary phenomena of arthritis of adjuvant (in words)", "setting": "secondary arthritis; subcutaneously, compared with Levamisole", "value": "very active against secondary phenomena of arthritis of adjuvant"}]}
{"smiles": "C[C@H](O)[C@H]1CC[C@H]2[C@@H]3CC[C@H]4C[C@H](NC(=O)CN)CC[C@@H]4[C@H]3CC[C@]12C", "note": "[Example 11, 2-amino-N-[(20S) 19-nor-5α-pregnane-20-ol-3α-yl]-acetamide hydrochloride]", "values": [{"measurement": "ED (2-fold rosettes)", "setting": "[1]; [2]", "value": 5, "unit": "mg/kg"}, {"measurement": "active dose which provoked a mortality equal to or greater than 50% of the animals", "setting": "anaphylactic shock", "value": 0.5, "unit": "mg per animal"}, {"measurement": "DL0 (lethal dose LD0, maximum dose which did not cause any mortality after 8 days)", "setting": "mice", "value": "≥ 400", "unit": "mg/kg"}]}
{"smiles": "CC(=O)[C@@]1(O)CC[C@H]2[C@@H]3CC[C@H]4C[C@H](NC(=O)CN)CC[C@]4(C)[C@H]3CC[C@@]21C", "note": "[Example 12, 2-amino-N-[(5α-pregnane-17α-ol-20-one-3α-yl]-acetamide hydrochloride]", "values": [{"measurement": "ED (2-fold rosettes)", "setting": "[1]; [2]", "value": 5, "unit": "mg/kg"}]}
{"smiles": "c1ccc([C@H]2CN3CCSC3=N2)cc1", "note": "[Levamisole, reference compound]", "values": [{"measurement": "minimal effective dose", "setting": "IgE production; subcutaneous, 3 hours before first immunization, ovalbumin-alumina", "value": 20, "unit": "mg/kg"}, {"measurement": "ED50", "setting": "secondary arthritis; po, orally, treatment from day of adjuvant injection to 17th day", "value": 50, "unit": "mg/kg"}]}
{"smiles": "C[C@H](O)[C@H]1CC[C@H]2[C@@H]3CC[C@H]4C[C@H](N(C)C(=O)CN)CC[C@]4(C)[C@H]3CC[C@]12C.Cl", "note": "[Example 15, 2-amino-N-[(20S) 5α-pregnane-20-ol-3α-yl]-N-methyl-acetamide hydrochloride]", "values": [{"measurement": "ED (2-fold rosettes)", "setting": "[1]", "value": 10, "unit": "mg/kg"}, {"measurement": "active dose which provoked a mortality equal to or greater than 50% of the animals", "setting": "anaphylactic shock", "value": 0.5, "unit": "mg per animal"}, {"measurement": "DL0 (lethal dose LD0, maximum dose which did not cause any mortality after 8 days)", "setting": "mice", "value": "≥ 200", "unit": "mg/kg"}]}
{"smiles": "C[C@H](O)[C@H]1CC[C@H]2[C@@H]3CC[C@H]4C[C@H](NC(=O)c5cccnc5)CC[C@]4(C)[C@H]3CC[C@]12C", "note": "[Example 9, N-[(20S)5α-pregnan-20-ol-3α-yl]-3-pyridinecarboxamide]", "values": [{"measurement": "ED (2-fold rosettes)", "setting": "[1]; [2]", "value": 5, "unit": "mg/kg"}, {"measurement": "active dose which provoked a mortality equal to or greater than 50% of the animals", "setting": "anaphylactic shock", "value": 5, "unit": "mg per animal"}]}
{"smiles": "C[C@H](O)[C@H]1CC[C@H]2[C@@H]3CC[C@H]4C[C@H](NC(=O)[C@@H](N)CO)CC[C@]4(C)[C@H]3CC[C@]12C", "note": "[Example 4]", "values": [{"measurement": "DL0 (lethal dose LD0, maximum dose which did not cause any mortality after 8 days)", "setting": "mice", "value": "≥ 400", "unit": "mg/kg"}]}
{"smiles": "C[C@H](O)[C@H]1CC[C@H]2[C@@H]3CC[C@H]4C[C@H](NC(=O)[C@@H](N)CCC(=O)O)CC[C@]4(C)[C@H]3CC[C@]12C", "note": "[Example 3]", "values": [{"measurement": "active dose which provoked a mortality equal to or greater than 50% of the animals", "setting": "anaphylactic shock", "value": "≤ 1", "unit": "mg per animal"}, {"measurement": "DL0 (lethal dose LD0, maximum dose which did not cause any mortality after 8 days)", "setting": "mice", "value": "≥ 400", "unit": "mg/kg"}]}
{"smiles": "C[C@H](O)[C@H]1CC[C@H]2[C@@H]3CC[C@H]4C[C@H](NC(=O)[C@@H](N)Cc5c[nH]c6ccccc56)CC[C@]4(C)[C@H]3CC[C@]12C", "note": "[Example 6, (2S) 2-amino-N-[(20S) 5α-pregnane-20-ol-3α-yl]-1H-indol-3-propanamide]", "values": [{"measurement": "ED (2-fold rosettes)", "setting": "[1]; [2]", "value": 2, "unit": "mg/kg"}, {"measurement": "active dose which provoked a mortality equal to or greater than 50% of the animals", "setting": "anaphylactic shock", "value": 5, "unit": "mg per animal"}, {"measurement": "DL0 (lethal dose LD0, maximum dose which did not cause any mortality after 8 days)", "setting": "mice", "value": "≥ 1000", "unit": "mg/kg"}]}
{"smiles": "C[C@H](N)C(=O)N[C@@H]1CC[C@@]2(C)[C@@H](CC[C@@H]3[C@@H]2CC[C@]2(C)[C@@H]([C@H](C)O)CC[C@@H]32)C1", "note": "[Example 2, (2S) 2-amino-N-[(20S)-5α-pregnan-20-ol-3α-yl]-propanamide]", "values": [{"measurement": "ED (2-fold rosettes)", "setting": "[1]; [2]", "value": 1, "unit": "mg/kg"}, {"measurement": "active dose which provoked a mortality equal to or greater than 50% of the animals", "setting": "anaphylactic shock", "value": 0.5, "unit": "mg per animal"}, {"measurement": "DL0 (lethal dose LD0, maximum dose which did not cause any mortality after 8 days)", "setting": "mice", "value": 200, "unit": "mg/kg"}]}
{"smiles": "C[C@H](O)[C@@]1(O)CC[C@H]2[C@@H]3CC[C@H]4C[C@H](NC(=O)CN)CC[C@]4(C)[C@H]3CC[C@@]21C", "note": "[Example 10, 2-amino-N-[(20S) 5α-pregnane-17α,20-diol-3α-yl]-acetamide hydrochloride]", "values": [{"measurement": "active dose which provoked a mortality equal to or greater than 50% of the animals", "setting": "anaphylactic shock", "value": 1, "unit": "mg per animal"}, {"measurement": "DL0 (lethal dose LD0, maximum dose which did not cause any mortality after 8 days)", "setting": "mice", "value": "≥ 600", "unit": "mg/kg"}]}
{"smiles": "C[C@H](O)[C@H]1CC[C@H]2[C@@H]3CC[C@H]4C[C@H](NC(=O)[C@@H](N)Cc5ccccc5)CC[C@]4(C)[C@H]3CC[C@]12C", "note": "[Example 5]", "values": [{"measurement": "active dose which provoked a mortality equal to or greater than 50% of the animals", "setting": "anaphylactic shock", "value": 5, "unit": "mg per animal"}, {"measurement": "DL0 (lethal dose LD0, maximum dose which did not cause any mortality after 8 days)", "setting": "mice", "value": "≥ 400", "unit": "mg/kg"}]}
{"smiles": "C[C@H](O)[C@H]1CC[C@H]2[C@@H]3CC[C@H]4C[C@H](NC(=O)CNC(=O)CN)CC[C@]4(C)[C@H]3CC[C@]12C", "note": "[Example 8]", "values": [{"measurement": "active dose which provoked a mortality equal to or greater than 50% of the animals", "setting": "anaphylactic shock", "value": 1, "unit": "mg per animal"}, {"measurement": "DL0 (lethal dose LD0, maximum dose which did not cause any mortality after 8 days)", "setting": "mice", "value": "≥ 400", "unit": "mg/kg"}]}
{"smiles": "CCOC(=O)N[C@@H]1CC[C@@]2(C)[C@@H](CC[C@@H]3[C@@H]2CC[C@]2(C)[C@@H]([C@H](C)O)CC[C@@H]32)C1", "note": "[Example 14, Ethyl N-[(20S)5α-pregnane-20-ol-3α-yl]-carbamate]", "values": [{"measurement": "active dose which provoked a mortality equal to or greater than 50% of the animals", "setting": "anaphylactic shock", "value": 5, "unit": "mg per animal"}, {"measurement": "DL0 (lethal dose LD0, maximum dose which did not cause any mortality after 8 days)", "setting": "mice", "value": "≥ 400", "unit": "mg/kg"}]}
